Some test systems named below: 786-0; HL-60; M14; HOP-92; SK-MEL-5; MCF7; SK-MEL-28; HCC 2998; NCI-H23; SF-268; ACHN; SF-295; MDA-MB-435; SK-OV-3; SR; SK-MEL-2; UO-31; SN12C; COLO 205.
Common to all, as to experiment: NCI tumour cell line growth inhibition, 48 h

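Tested at 5 concentrations; 48 h exposure; 96-well plates; endpoints linearly interpolated, else capped at highest concentration. At the GI50, growth is halved.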 The source made the active and inactive calls. Cut-off read from the data, not from the text of the source: active = GI50 up to about 1.1 µM and inactive = higher.

Consider twelve molecules from ChEMBL document CHEMBL1201862, “PubChem BioAssay data set” (2004).

As to `CCOc1cc2c(cc1O)CC[C@@H]1[C@@H]2CC[C@]2(C)[C@@H](O)CC[C@@H]12`, the GI50 in the assay on 786-0 is 0.0301 µM (active); in the assay with HL-60, 0.014 µM (active); in the assay on M14, 0.0261 µM (active); in the assay with HOP-92, 0.0537 µM (active); in the assay on SK-MEL-5 it was 0.0188 µM (active); in the assay with MCF7, 0.0287 µM (active). Besides, the GI50 in the assay with SK-MEL-28 was 0.443 µM (active); with HCC 2998, 0.532 µM (active); in the assay on NCI-H23, 0.0667 µM (active); in the assay with SF-268, 0.0612 µM (active); in the assay with ACHN it was 0.0123 µM (active); in the assay on SF-295 it was 0.138 µM (active). The GI50 in the assay on MDA-MB-435 was 0.0112 µM (active); in the assay on SK-OV-3 it was 0.138 µM (active); in the assay on SR, < 0.0192 µM (active); in the assay on SK-MEL-2, 0.118 µM (active); with UO-31, 0.256 µM (active); in the assay with SN12C it was 0.0778 µM (active). For the same molecule, the GI50 with COLO 205 was 12.7 µM (inactive).

For the molecule `O=C1c2cccc3cc([N+](=O)[O-])cc(c23)C(=O)N1CCCN1CCN(CCCNc2ccc3ncn4c5ccccc5c(=O)c2c34)CC1`, the GI50 in the assay with 786-0 was < 0.005 µM (active); in the assay with HL-60, < 0.005 µM (active); in the assay on M14, < 0.005 µM (active); with HOP-92, 0.013 µM (active); in the assay on MCF7, < 0.005 µM (active); in the assay on SK-MEL-28, 0.0562 µM (active). The GI50 in the assay on HCC 2998, in the assay with NCI-H23, in the assay on SF-268, with ACHN, in the assay on SF-295 and in the assay on MDA-MB-435 was < 0.005 µM (active) throughout. Moreover, the GI50 is 0.0198 µM (active) in the assay with SK-OV-3; 0.0191 µM (active) with SK-MEL-2; < 0.005 µM (active) in the assay on UO-31; < 0.005 µM (active) in the assay with SN12C; < 0.005 µM (active) in the assay on COLO 205.

On to `CCCCCC(=O)OC[n+]1ccc2c(C)c3[nH]c4ccccc4c3c(C)c2c1`, for which the GI50 with 786-0 is 0.405 µM (active); in the assay with HL-60, 2.99 µM (inactive); in the assay on M14, 1.42 µM (inactive); with HOP-92, 2.48 µM (inactive); with SK-MEL-5, 1.51 µM (inactive); with SK-MEL-28, 1.43 µM (inactive). In addition, the GI50 in the assay with HCC 2998 was 0.787 µM (active); in the assay on NCI-H23, 0.857 µM (active); in the assay on SF-268 it was 0.796 µM (active); with ACHN, 0.738 µM (active); with SF-295, 0.946 µM (active); in the assay on SK-OV-3, 1.92 µM (inactive). For the same molecule, the GI50 with SR was 0.281 µM (active); in the assay with SK-MEL-2, 3.61 µM (inactive); with UO-31 it was 2.65 µM (inactive); in the assay on SN12C, 0.489 µM (active).

Turning to `O=C(O)C1=C(C(=O)O)Oc2ccccc2O1`, the GI50 with 786-0, in the assay on HL-60, with M14, in the assay with HOP-92, with SK-MEL-28 and in the assay with HCC 2998 was > 100 µM (inactive) each time. Moreover, the GI50 in the assay with NCI-H23, in the assay on SF-268, in the assay with ACHN, in the assay with SF-295, in the assay on SK-OV-3 and in the assay on SR was > 100 µM (inactive) each time. In addition, the GI50 with SK-MEL-2, in the assay with UO-31, in the assay on SN12C and with COLO 205 was > 100 µM (inactive) each time.

Consider `CN(CCS(=O)(=O)N1C(=O)C2CCCN2C(=O)[C@@H]1Cc1ccccc1)C(=O)OCc1ccccc1` (some centres not stated), for which the GI50 in the assay on 786-0 was > 100 µM (inactive); in the assay with HL-60, 10.7 µM (inactive); with M14, 45.6 µM (inactive); with HOP-92 it was 26.2 µM (inactive); in the assay on SK-MEL-5 it was 25.8 µM (inactive); in the assay on SK-MEL-28, 93.5 µM (inactive). Further, the GI50 was 40.2 µM (inactive) with HCC 2998; 53.2 µM (inactive) in the assay on NCI-H23; 61.1 µM (inactive) in the assay with SF-268; 28.3 µM (inactive) in the assay with ACHN; 62.2 µM (inactive) with SF-295; > 100 µM (inactive) in the assay on SK-OV-3. Besides, the GI50 is 40 µM (inactive) in the assay on SR, 31.8 µM (inactive) in the assay with UO-31, 91.6 µM (inactive) in the assay on SN12C and 58.5 µM (inactive) with COLO 205.

For `CN(C)CCN(C)CCC(=O)/C=C/c1ccccc1`, the GI50 in the assay with 786-0 was 15.6 µM (inactive); in the assay with HL-60 it was 16.4 µM (inactive); with M14 it was 20.9 µM (inactive); with HOP-92, 25.5 µM (inactive); in the assay on SK-MEL-5 it was > 44.5 µM (inactive); with SK-MEL-28, 20.1 µM (inactive). The GI50 with HCC 2998 was > 45.5 µM (inactive); with NCI-H23 it was 27.1 µM (inactive); in the assay on SF-268, 30.5 µM (inactive); in the assay with ACHN it was 29.5 µM (inactive); with SF-295, > 40.4 µM (inactive); in the assay on SK-OV-3 it was > 100 µM (inactive). The GI50 in the assay on SR is 7 µM (inactive); in the assay on SK-MEL-2 it was 39.2 µM (inactive); in the assay on UO-31 it was > 64.7 µM (inactive); in the assay on SN12C it was 19 µM (inactive); in the assay with COLO 205, 18.7 µM (inactive).

Regarding `N#CCCN(C1=NN(C(=O)CC(=O)Nc2ccc(Cl)cc2)C(c2ccccc2)C1)c1ccc(Cl)cc1` (configuration not stated), the GI50 with 786-0, with HL-60, in the assay with M14, in the assay with HOP-92, with SK-MEL-5 and in the assay on SK-MEL-28 was > 100 µM (inactive) in each case. Also, the GI50 with HCC 2998, with NCI-H23, with SF-268, in the assay with ACHN, in the assay with SF-295 and in the assay with SR was > 100 µM (inactive) each time. Moreover, the GI50 in the assay with SK-MEL-2, in the assay on UO-31, in the assay with SN12C and in the assay on COLO 205 was > 100 µM (inactive) in each case.

For `Cc1c(C(=O)CC(=O)C(=O)Nc2cccc(C(F)(F)F)c2)[n+]([O-])c2ccccc2[n+]1[O-]`, the GI50 is 5.79 µM (inactive) in the assay on 786-0; 3.08 µM (inactive) in the assay with HL-60; 3.37 µM (inactive) with M14; 14.3 µM (inactive) in the assay with HOP-92; 3.57 µM (inactive) in the assay with SK-MEL-5; 7.35 µM (inactive) with SK-MEL-28. The GI50 in the assay with HCC 2998 was 4.72 µM (inactive); in the assay on NCI-H23, 7.36 µM (inactive); with SF-268 it was 3.67 µM (inactive); in the assay on ACHN, 3.15 µM (inactive); in the assay with SF-295, 10.6 µM (inactive); in the assay on SK-OV-3, 18.2 µM (inactive). For the same molecule, the GI50 with SR is 2.33 µM (inactive); in the assay with SK-MEL-2, 4.28 µM (inactive); with UO-31, 16.3 µM (inactive); with SN12C, 3.37 µM (inactive); with COLO 205, 3.33 µM (inactive).

As for `Oc1cccc(-c2cc(=S)ss2)c1`, the GI50 in the assay on 786-0 was 19.7 µM (inactive); with HL-60 it was 15 µM (inactive); in the assay on M14, 20.6 µM (inactive); with HOP-92 it was 13.9 µM (inactive); in the assay with SK-MEL-5 it was 5.97 µM (inactive); in the assay with MCF7, 12.8 µM (inactive). Also, the GI50 is 19.7 µM (inactive) with SK-MEL-28; 17.7 µM (inactive) in the assay on HCC 2998; 8.79 µM (inactive) with NCI-H23; 16.9 µM (inactive) with SF-268; 15.7 µM (inactive) with ACHN; 14.3 µM (inactive) in the assay with SF-295. Also, the GI50 is 20.5 µM (inactive) with MDA-MB-435; 20 µM (inactive) in the assay on SK-OV-3; 2.76 µM (inactive) with SR; 15.6 µM (inactive) in the assay on SK-MEL-2; 14.3 µM (inactive) with UO-31; 20.2 µM (inactive) in the assay on SN12C. For the same molecule, in the assay with COLO 205, the GI50 is 18.4 µM (inactive).

For `Cc1ccc(S(=O)(=O)Nn2c(O)c(C#N)c(-c3ccc(Cl)cc3)c(C#N)c2=O)cc1`, the GI50 with 786-0, with HL-60, in the assay on M14, in the assay with HOP-92, in the assay on SK-MEL-5 and with MCF7 was > 100 µM (inactive) throughout. Also, the GI50 with SK-MEL-28, with HCC 2998, in the assay with SF-268, in the assay on ACHN, in the assay with SF-295 and in the assay on MDA-MB-435 was > 100 µM (inactive) throughout. Further, the GI50 with SK-OV-3, in the assay on SK-MEL-2, in the assay with SN12C and with COLO 205 was > 100 µM (inactive) throughout.

`CC1C(=O)O[C@H]2C1CC[C@@]1(C)[C@H](O)CC[C@@]13C[C@]2(O)OO3` (some centres not stated): the GI50 with 786-0, in the assay with HL-60, in the assay with M14, with HOP-92, with SK-MEL-5 and in the assay on SK-MEL-28 was > 100 µM (inactive) each time. Moreover, the GI50 in the assay on HCC 2998, in the assay on NCI-H23, in the assay with SF-268, in the assay with ACHN, with SF-295 and with SK-OV-3 was > 100 µM (inactive) each time. For the same molecule, the GI50 in the assay on SR, in the assay on UO-31, in the assay on SN12C and in the assay on COLO 205 was > 100 µM (inactive) throughout.

Take `CC(=O)OC(C)(C)[C@@H]1CC[C@]2(C)/C=C/[C@H](C)C[C@@H](O)C3=C(C)C[C@@H](O3)C12` (some centres not stated): the GI50 with 786-0, in the assay with HL-60, in the assay with M14, in the assay on HOP-92, in the assay with SK-MEL-5 and with SK-MEL-28 was > 100 µM (inactive) throughout. In addition, the GI50 with HCC 2998, in the assay with NCI-H23, in the assay on SF-268, in the assay with ACHN, with SF-295 and in the assay on SK-OV-3 was > 100 µM (inactive) in each case. The GI50 in the assay with SR, in the assay with SK-MEL-2, in the assay on UO-31, in the assay with SN12C and in the assay on COLO 205 was > 100 µM (inactive) throughout.
